Reference: PMC1784591 (Infectious Diseases in Obstetrics and Gynecology, 2004)
Counter-ions that a name gives are not always drawn.

How the values were obtained:
[1] = cited from earlier work
[2] = cited from earlier work; remark: listed apart in the source
[3] = system: term human placenta (single cotyledon); experiment: ex vivo human placental perfusion, single cotyledon, open system; details: range over placentas
[4] = system: term human placenta (single cotyledon); experiment: ex vivo human placental perfusion, closed-closed recirculation system; format: in vitro ADME; details: system closed for 1-5 h; peak and trough concentrations
[5] = cited from earlier work; remark: listed apart in the source

## CN[C@H](CC(C)C)C(=O)N[C@H]1C(=O)N[C@@H](CC(N)=O)C(=O)N[C@H]2C(=O)N[C@H]3C(=O)N[C@H](C(=O)N[C@H](C(=O)O)c4cc(O)cc(O)c4-c4cc3ccc4O)[C@H](O)c3ccc(c(Cl)c3)Oc3cc2cc(c3O[C@@H]2O[C@H](CO)[C@@H](O)[C@H](O)[C@H]2O[C@H]2C[C@](C)(N)[C@H](O)[C@H](C)O2)Oc2ccc(cc2Cl)[C@H]1O [vancomycin, vancomycin hydrochloride]
[1]
  heparin concentration above which vancomycin precipitates when mixed: more than 1 unit/ml
[2]
  fraction bound to plasma proteins (unavailable for transfer): a third to a half
[2]; non-pregnant subjects
  bound to plasma proteins: 30-55%
[3]; peak concentrations
  Clearance index, mean peak range: 0.000-0.080
[3]; trough concentrations
  Clearance index, mean trough range: 0.00-0.17
[4]
  accumulation of vancomycin (fetal): No accumulation
[5]; non-pregnant subjects
  excreted by glomerular filtration: 90%
[5]; without meningitis
  CSF levels: undetectable
